Assay results as given in ChEMBL document CHEMBL1126441, “A novel and selective class of azabicyclic muscarinic agonists incorporating an N-methoxy imidoyl halide or nitrile functionality” (Bioorg Med Chem Lett, 1992).

Tests used:
[1] = molecular target: Muscarinic acetylcholine receptor; assay: In vitro inhibition of oxotremorine-M (OXO-M) binding to muscarinic receptors of rat cerebral cortex; assay type: tissue-based
[2] = molecular target: Muscarinic acetylcholine receptor; assay: In vitro inhibition of [3H]quinuclidinyl benzilate (QNB) binding to muscarinic receptors of rat cerebral cortex; assay type: tissue-based
[3] = molecular target: Muscarinic acetylcholine receptor (Rattus norvegicus) (UniProt P08482+P08483+P08485+P08911+P10980); assay: Relative affinities compared to oxotremorine-M (OXO-M) and [3H]quinuclidinyl benzilate (QNB) for muscarinic receptors; assay type: protein assay
[4] = Ratio of 50% fall in mean blood pressure (BP) to rhythmical slow wave activity (RSA) was determined; assay type: functional
[5] = LogD value represents the distribution coefficient at pH 7.3.; assay type: physicochemical; conditions: octanol/water
[6] = Partition coefficient (logP); assay type: physicochemical; conditions: octanol/water
[7] = tested on: Rattus norvegicus; assay: Effective dose required to cause 50% fall in mean blood pressure (BP) by the compound on iv administration; assay type: functional
[8] = Compound was evaluated for its dissociation constant.; assay type: ADME
[9] = tested on: Rattus norvegicus; assay: The effective dose required to produce a change in the mean power spectrum of the EEG equivalent to that of a standard dose (0.32 mg/kg) of arecoline on iv administration; assay type: functional

CO/N=C(\Cl)C1CN2CCC1CC2 (centres undefined)
IC50 [1]: 69 nM
IC50 [2]: 1100 nM
Ratio [3]: 16

CO/N=C(\F)[C@H]1CN2CC[C@H]1C2
IC50 [1]: 9 nM
IC50 [2]: 3100 nM
Ratio [3]: 344

CO/N=C(\Cl)[C@H]1CN2CC[C@H]1C2
IC50 [1]: 64 nM
IC50 [2]: 3000 nM
Ratio [3]: 47

CO/N=C(\C#N)[C@H]1CN2CCC1C2 (some centres undefined)
IC50 [1]: 23 nM
IC50 [2]: 2300 nM

CO/N=C(\Br)C12CCN(CC1)C2
IC50 [1]: 160 nM
IC50 [2]: 8100 nM
Ratio [3]: 51

CO/N=C(\Cl)C12CCCN(CC1)C2 (centres undefined)
Ratio [4]: 11
logD [5]: 0.18
logP [6]: 2.12
ED50 [7]: 0.32 mg/kg
IC50 [1]: 72 nM
IC50 [2]: 3000 nM
pKa [8]: 9.24
ED Arec [9]: 0.029 mg/kg
Ratio [3]: 42

CO/N=C(\C)C12CCCN(CC1)C2 (centres undefined)
Ratio [4]: 1
logD [5]: -1.13
logP [6]: 1.65
ED50 [7]: 0.068 mg/kg
pKa [8]: 10.1
ED Arec [9]: 0.068 mg/kg

CO/N=C(\Br)[C@H]1CN2CC[C@H]1C2
IC50 [1]: 59 nM
IC50 [2]: 3000 nM
Ratio [3]: 51

CO/N=C(\F)C12CCCN(CC1)C2 (centres undefined)
Ratio [4]: 2.5
logD [5]: -0.76
logP [6]: 1.01
ED50 [7]: 0.03 mg/kg
IC50 [1]: 43 nM
IC50 [2]: 2400 nM
pKa [8]: 9.06
ED Arec [9]: 0.012 mg/kg
Ratio [3]: 56

CO/N=C(\C#N)C12CCN(CC1)C2
IC50 [1]: 19 nM
IC50 [2]: 1950 nM
Ratio [3]: 103

CO/N=C(\C#N)C12CCCN(CC1)C2 (centres undefined)
Ratio [4]: 4
logD [5]: -0.18
logP [6]: 1.49
ED50 [7]: 0.02 mg/kg
IC50 [1]: 11 nM
IC50 [2]: 220 nM
pKa [8]: 8.96
ED Arec [9]: 0.005 mg/kg

CO/N=C(\C#N)C1CN2CCC1CC2 (centres undefined)
Ratio [4]: >10.8
logD [5]: -0.11
logP [6]: 1.56
ED50 [7]: > 0.56 mg/kg
IC50 [1]: 33 nM
IC50 [2]: 470 nM
pKa [8]: 8.96
ED Arec [9]: 0.052 mg/kg
Ratio [3]: 14

CO/N=C(\C)C1CN2CCC1CC2 (centres undefined)
Ratio [4]: >0.35
logD [5]: -1.09
logP [6]: 1.88
ED50 [7]: > 0.1 mg/kg
pKa [8]: 10.3
ED Arec [9]: 0.31 mg/kg

CO/N=C(\F)C1CN2CCC1CC2 (centres undefined)
IC50 [1]: 34 nM
IC50 [2]: 2000 nM
Ratio [3]: 65

CO/N=C(\Cl)C12CCN(CC1)C2
IC50 [1]: 51 nM
IC50 [2]: 8500 nM
Ratio [3]: 167

CO/N=C(\F)C12CCN(CC1)C2
IC50 [1]: 44 nM
IC50 [2]: 15500 nM
Ratio [3]: 352

CO/N=C(\Br)C12CCCN(CC1)C2 (centres undefined)
IC50 [1]: 190 nM
IC50 [2]: 2300 nM
Ratio [3]: 12
